One block for each substance: values may come before it.
System: IgE antibodies from patients
Assay: Wheat epitope mapping (2): overlapping 10-amino-acid peptide fragments shifted by one amino acid;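 on Rank of partial sequence as epitope binding to IgE antibody: key = sequence deemed particularly important within the common 15-residue sequence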;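 on epitope sequence binding to IgE antibody, rank (Key/Preferably/More preferably): key of grades: preferably = shorter partial sequence still acting as epitope; more preferably = sequence improving IgE binding; key = particularly important sequence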
Assay type: binding, human
Method: The peptides to be synthesized were shifted by one amino acid.
The library was prepared by the same procedure as described above in (A), and the presence or absence of binding of an IgE antibody present in the serum of a patient to each peptide fragment was measured by the same technique as described above. Numeric values determined from images obtained as a result of carrying out only the procedures (1) and (4) to (6) described above in the subsection titled (3) Spotting of cellulose-bound peptide solution were used as control values. The control value of each peptide was subtracted from numeric values determined from images obtained from results about the serum of patients, and the obtained value of the difference was compared with values of the peptides serving as the basis of overlapping.
Chemiluminescence intensity in images obtained by measurement was converted into a numeric value in the same manner as in (A). Numeric values determined from images obtained as a result of carrying out only the procedures (1) and (4) to (6) described above in the subsection titled (3) Spotting of cellulose-bound peptide solution (secondary antibody measurement values) were used as control values. The control value of each peptide was subtracted from numeric values determined from images obtained from results about the serum of patients. When values obtained using the sequences (SEQ ID NOs: 29, 131, 191, 281, 346, 414, 493, 562, 640, 706, 776, 899, 974, 1010, 1089, 1142, 1166, 1209, 1257, 1297, 1367, 1403, 1508, 1566, 1598, 1608, 1685, 1753, 1789, 1836, 1895, 1977, 2004, 2027, 2068, 2154, 2217, 2265, 2309, 2342, 2419, 2491, 2545, 2613, 2631, 2674, 2701, 2774, 2809 and 2830) serving as the basis of overlapping were defined as 100%, it was determined that: a peptide having a value of the difference that was less than 30% had no binding activity against IgE antibodies; a peptide having a value of the difference that was 30% or more and less than 50% had binding activity, albeit poor, against IgE antibodies; a peptide having a value of the difference that was 50% or more and less than 70% had binding activity, albeit somewhat poor, against IgE antibodies; and a peptide having a value of the difference that was 70% or more had equivalent or good binding activity against IgE antibodies and was thus a peptide had remaining binding activity against IgE antibodies.

[1] = serum of patient P10 (WDEIA), sequence without X
[2] = serum of patient P53 (child, general immediate type allergy to wheat), partial sequence
[3] = serum of patient P35 (WDEIA), partial sequence
[4] = serum of patient P26 (WDEIA), sequence without X
[5] = serum of patient P36 (WDEIA), sequence without X
[6] = serum of patient P35 (WDEIA), sequence without X

Substance: 1695 (EAANFT; REGION 1..6: note = epitope) [compound 1695]
Rank of partial sequence as epitope binding to IgE antibody (serum of patient P20 (WDEIA), sequence without X): Key

Substance: 1424 (SQQQA; REGION 1..5: note = epitope) [compound 1424]
Epitope sequence binding to IgE antibody, rank of the sequence [1]: Key

Substance: 1523 (QVPLVQQQQF; REGION 1..10: note = epitope) [compound 1523]
Rank of partial sequence as epitope binding to IgE antibody [1]: Further preferably

Substance: 1672 (PDKVPFVPIS; REGION 1..10: note = epitope) [compound 1672]
Rank of partial sequence as epitope binding to IgE antibody (serum of patient G4 (adult, general immediate type allergy to wheat), sequence without X): Key

Substance: 1694 (EAANFTS; REGION 1..7: note = epitope) [compound 1694]
Rank of partial sequence as epitope binding to IgE antibody (serum of patient P19 (WDEIA), sequence without X): Key

Substance: 1506 (YLQPQQP; REGION 1..7: note = epitope) [compound 1506]
Rank of partial sequence as epitope binding to IgE antibody (serum of patient G9 (adult, general immediate type allergy to wheat), sequence without X): Preferably

Substance: 1712 (EAANF; REGION 1..5: note = epitope) [compound 1712]
epitope sequence binding to IgE antibody, rank (Key/Preferably/More preferably) (serum of patient P34 (WDEIA)): Key

Substance: 1843 (TVRTLQR; REGION 1..7: note = epitope) [compound 1843]
epitope sequence binding to IgE antibody, rank (Key/Preferably/More preferably) (serum of patient P9 (WDEIA)): Preferably

Substance: 1864 (TVRTLQR; REGION 1..7: note = epitope) [compound 1864]
epitope sequence binding to IgE antibody, rank (Key/Preferably/More preferably) (serum of patient P25 (WDEIA)): Key

Substance: 1356 (INVEN; REGION 1..5: note = epitope) [compound 1356]
Epitope sequence binding to IgE antibody, rank of the sequence [5]: Preferably

Substance: 1235 (PQQPP; REGION 1..5: note = epitope) [compound 1235]
Epitope sequence binding to IgE antibody, rank of the sequence (serum of patient P17 (WDEIA), sequence without X): Key

Substance: 1353 (NVEN; REGION 1..4: note = epitope) [compound 1353]
Epitope sequence binding to IgE antibody, rank of the sequence [6]: Key

Substance: 1216 (PQQPP; REGION 1..5: note = epitope) [compound 1216]
Epitope sequence binding to IgE antibody, rank of the sequence (serum of patient P7 (WDEIA), sequence without X): Preferably

Substance: 1447 (QQPISQQQ; REGION 1..8: note = epitope) [compound 1447]
Rank of partial sequence as epitope binding to IgE antibody (serum of patient P21 (WDEIA), sequence without X): Key

Substance: 1838 (RTLQ; REGION 1..4: note = epitope) [compound 1838]
epitope sequence binding to IgE antibody, rank (Key/Preferably/More preferably) (serum of patient P3 (WDEIA)): Key

Substance: 1792 (SGKELE; REGION 1..6: note = epitope) [compound 1792]
epitope sequence binding to IgE antibody, rank (Key/Preferably/More preferably) (serum of patient P8 (WDEIA)): Key

Substance: 1419 (YLQPQQPIS; REGION 1..9: note = epitope) [compound 1419]
Epitope sequence binding to IgE antibody, rank of the sequence (serum of patient P9 (WDEIA), sequence without X): Key

Substance: 1746 (EAANFTS; REGION 1..7: note = epitope) [compound 1746]
epitope sequence binding to IgE antibody, rank (Key/Preferably/More preferably) (serum of patient G5 (adult, general immediate type allergy to wheat)): Preferably

Substance: 1716 (SQVIIM; REGION 1..6: note = epitope) [compound 1716]
epitope sequence binding to IgE antibody, rank (Key/Preferably/More preferably) (serum of patient P35 (WDEIA)): Key

Substance: 1411 (QQPISQQQAQ; REGION 1..10: note = epitope) [compound 1411]
Epitope sequence binding to IgE antibody, rank of the sequence (serum of patient P3 (WDEIA), sequence without X): Preferably

Substance: 1514 (QVPLVQQQQ; REGION 1..9: note = epitope) [compound 1514]
Rank of partial sequence as epitope binding to IgE antibody (serum of patient P4 (WDEIA), sequence without X): Preferably

Substance: 1463 (QQPISQQQAQ; REGION 1..10: note = epitope) [compound 1463]
Rank of partial sequence as epitope binding to IgE antibody (serum of patient P24 (WDEIA), sequence without X): Further preferably

Other lines, results leading:

Epitope sequence binding to IgE antibody, rank of the sequence (serum of patient P17 (WDEIA), partial sequence): Key
Substance: 2680 (YKGPTL; REGION 1..6: note = epitope) [compound 2680]

Epitope sequence binding to IgE antibody, rank of the sequence (serum of patient P15 (WDEIA), partial sequence): Preferably
Substance: 2502 (SSQVSFQPSQ; REGION 1..10: note = epitope) [compound 2502]

Epitope sequence binding to IgE antibody, rank of the sequence (Key/Preferably/More preferably) (serum of patient P18 (WDEIA), sequence without X): Key
Substance: 2228 (NYRVAI; REGION 1..6: note = epitope) [compound 2228]

Epitope sequence binding to IgE antibody, rank of the sequence (serum of patient P10 (WDEIA), partial sequence): Preferably
Substance: 2637 (KEAAEM; REGION 1..6: note = epitope) [compound 2637]

Epitope sequence binding to IgE antibody, rank of the sequence [2]: Key
Substance: 2600 (QQLC; REGION 1..4: note = epitope) [compound 2600]

Epitope sequence binding to IgE antibody, rank of the sequence [3]: Preferably
Substance: 2592 (YQLVQQ; REGION 1..6: note = epitope) [compound 2592]

Epitope sequence binding to IgE antibody, rank of the sequence (serum of patient P7 (WDEIA), partial sequence): Key
Substance: 2497 (QVSF; REGION 1..4: note = epitope) [compound 2497]

epitope sequence binding to IgE antibody, rank (Key/Preferably/More preferably) (serum of patient P19 (WDEIA)): Key
Substance: 1938 (QFPGQQ; REGION 1..6: note = epitope) [compound 1938]

epitope sequence binding to IgE antibody, rank (Key/Preferably/More preferably) (serum of patient P24 (WDEIA)): Preferably
Substance: 1951 (QFPGQQQ; REGION 1..7: note = epitope) [compound 1951]

Epitope sequence binding to IgE antibody, rank of the sequence (Key/Preferably/More preferably) (serum of patient P31 (WDEIA), sequence without X): Key
Substance: 2238 (LLRGIRNYRV; REGION 1..10: note = epitope) [compound 2238]

Epitope sequence binding to IgE antibody, rank of the sequence (Key/Preferably/More preferably) (serum of patient G7 (adult, general immediate type allergy to wheat), sequence without X): Key
Substance: 2304 (DKRVIERFE; REGION 1..9: note = epitope) [compound 2304]

Epitope sequence binding to IgE antibody, rank of the sequence (serum of patient P27 (WDEIA), partial sequence): Key
Substance: 2570 (QLVQQ; REGION 1..5: note = epitope) [compound 2570]

epitope sequence binding to IgE antibody, rank (Key/Preferably/More preferably) (serum of patient P8 (WDEIA)): Key
Substance: 1913 (QVPLVQQ; REGION 1..7: note = epitope) [compound 1913]

Epitope sequence binding to IgE antibody, rank of the sequence (Key/Preferably/More preferably) [4]: Key
Substance: 2436 (WSGKTE; REGION 1..6: note = epitope) [compound 2436]

Epitope sequence binding to IgE antibody, rank of the sequence (serum of patient G9 (adult, general immediate type allergy to wheat), partial sequence): Key
Substance: 2610 (LQQSTYQLV; REGION 1..9: note = epitope) [compound 2610]

Epitope sequence binding to IgE antibody, rank of the sequence (Key/Preferably/More preferably) (serum of patient P29 (WDEIA), sequence without X): Key
Substance: 2234 (RNYR; REGION 1..4: note = epitope) [compound 2234]

epitope sequence binding to IgE antibody, rank (Key/Preferably/More preferably) (serum of patient P24 (WDEIA)): More preferably
Substance: 1950 (QQQFPGQQQ; REGION 1..9: note = epitope) [compound 1950]

Epitope sequence binding to IgE antibody, rank of the sequence (Key/Preferably/More preferably) [5]: Preferably
Substance: 2401 (VTEIV; REGION 1..5: note = epitope) [compound 2401]

Epitope sequence binding to IgE antibody, rank of the sequence (serum of patient P2 (WDEIA), partial sequence): Key
Substance: 2614 (AKPLL; REGION 1..5: note = epitope) [compound 2614]

epitope sequence binding to IgE antibody, rank (Key/Preferably/More preferably) (serum of patient P33 (WDEIA)): Preferably
Substance: 1880 (TVRTLQRT; REGION 1..8: note = epitope) [compound 1880]

epitope sequence binding to IgE antibody, rank (Key/Preferably/More preferably) (serum of patient P31 (WDEIA)): More preferably
Substance: 1875 (TVRTLQRTV; REGION 1..9: note = epitope) [compound 1875]

Epitope sequence binding to IgE antibody, rank of the sequence (Key/Preferably/More preferably) [4]: Preferably
Substance: 2435 (KAWSGKTEN; REGION 1..9: note = epitope) [compound 2435]

Epitope sequence binding to IgE antibody, rank of the sequence [2]: Key
Substance: 2597 (QQSTYQLV; REGION 1..8: note = epitope) [compound 2597]

Epitope sequence binding to IgE antibody, rank of the sequence (serum of patient P57 (child, general immediate type allergy to wheat), partial sequence): Preferably
Substance: 2668 (KEAAE; REGION 1..5: note = epitope) [compound 2668]

Epitope sequence binding to IgE antibody, rank of the sequence (Key/Preferably/More preferably) [6]: Preferably
Substance: 2453 (LKAWSGK; REGION 1..7: note = epitope) [compound 2453]

epitope sequence binding to IgE antibody, rank (Key/Preferably/More preferably) (serum of patient P34 (WDEIA)): Key
Substance: 1883 (VRTLQ; REGION 1..5: note = epitope) [compound 1883]

Epitope sequence binding to IgE antibody, rank of the sequence [2]: Preferably
Substance: 2518 (PSQLNPQ; REGION 1..7: note = epitope) [compound 2518]

Epitope sequence binding to IgE antibody, rank of the sequence [3]: Key
Substance: 2658 (FEKEAAE; REGION 1..7: note = epitope) [compound 2658]

From patent publication US20240393292A1, “ALLERGY ANTIGEN AND EPITOPE THEREOF” (HOYU CO., LTD., priority 2019, published 2024)
